# Assay results: patent publication US20260150838A1, “ASCAROSIDE DERIVATIVES” (Ascribe Bioscience Inc., priority 2023, published 2026)
# Values joined by “and” are separate entries in the source; they are usually repeats but may differ in a detail not shown here. Equal entries are not always repeated.
# Key:
# [1] = uptake and metabolism of ascaroside amides in alfalfa seedlings (LC-MS of tissue extracts); assay type: in vivo; conditions: for hydrolysis or metabolism by the plant: alfalfa plants, timeframe shown (24 h + 4 h)
# Protocol: Ascaroside analogs 1a, 1b, and 1c were also evaluated in alfalfa seedlings to assess whether plants take up these analogs and whether they are hydrolyzed or metabolized to other ascarosides (specifically to ascr #18 and/or ascr #18 metabolites). The ascr #18 metabolism was evaluated by assaying the plant tissues for the known ascaroside metabolite ascr #9.
# (§1) Alfalfa seeds were germinated in the dark on culture plates (10 seeds per plate) containing Gelzan growth medium and were allowed to grow for 3-4 days before treatment. Treatment consisted of flooding the plates with 10 μM aqueous solutions of one of the ascaroside analogs 1a, 1b, or 1c, with ascr #18 (as a positive control), or with plain water as a mock treatment (5 ml total volume, solutions prepared in MQ water). Each experiment was performed in duplicate. After 24 hours, the plates were moved to an illuminated growth chamber for 4 hours before sampling.
# Sprouts were collected, thoroughly rinsed with MQ water, dried, flash-frozen, and homogenized. The homogenized tissues were extracted with 100% ethanol and the extracts were analyzed using high-resolution liquid chromatography-mass spectrometry (LC-MS). LC-MS analysis was performed using a Dionex 3000 UPLC coupled with a Thermo Q Exactive high-resolution mass spectrometer equipped with a HESI ion source. To measure ascarosides, samples were chromatographed using an Agilent Zorbax Eclipse column (150 mm×2.1 mm, particle size 1.98 μm) maintained at 40° C. with a 0.5 ml/min flow rate. Solvent A: 0.1% formic acid in water; Solvent B: 0.1% formic acid in acetonitrile. A solvent mixture using 1% B was used for 1.5 min after injection, followed by a linear gradient up to 99% B at 9.5 min, followed by 0.75 min of 99% B, then back to 1% B over 0.5 min, and finally held at 1% B for an additional 1.25 min to re-equilibrate the column (total time: 12 min, with needle washing and file writing: ˜14 min). Mass spectrometer parameters: spray voltage (−3.0 kV or +3.5 kV); capillary temperature 380° C.; probe heater temperature 400° C.; sheath, auxiliary, and sweep gas 60, 20, and 2 AU, respectively—S-Lens RF level: 50, resolution 120,000 at m/z 200, AGC target 3E6. Samples were injected and analyzed in negative electrospray ionization mode with an m/z range of 100-1000. Ascr #18 (C17H32O6) ionizes in negative ion mode as C17H31O6, m/z=331.2126, retention time 6 minutes using the above chromatographic conditions. Samples were also analyzed in positive ionization mode.
# (§2) The treatment solutions used to treat the sprouts were also analyzed assayed and the results are shown in the Column of Table 1 labeled “Input” In each case, only the analog, or ascr #18 respectively is detected, indicating the molecules are stable in the treatment solutions.
# Bipolaris sorokiniana = assay: wheat pathogen assay (fungal infection of wheat seedlings); assay type: in vivo; conditions: FIG. 1; for infection symptoms (symptomatic areas relative to the total leaf area) compared to mock: wheat cv. Louise sprayed with 1 μM solution in 0.1% Tween-20, inoculated 48 hours later with Bipolaris sorokiniana spores; for efficacy in reducing fungal infection relative to ascr #18: wheat, 1 μM solutions
# Protocol: The products of Examples 1, 1a to 1, 1c (hereafter referred to as compounds 1a, 1b, and 1c) were evaluated in a wheat pathogen assay to assess the potential of these analogs to prevent crop damage caused by a fungal pathogen. Wheat seeds of cv. Louise were planted in potting soil and grown for two weeks in a growth chamber at 26° C. and 23° C., respectively, with 16 hours of light. After two weeks, the plants were sprayed with a 1 μM solution of ascr #18, or compounds 1a, 1b, or 1c containing 0.1% (v/v) Tween®-20 in water solution, or with a mock solution only containing 0.1% (v/v) Tween®-20. 48 hours after treatment, the wheat plants were inoculated with a Bipolaris sorokiniana spore solution (with 15000 spores/ml) and placed in a dark grow tent with high humidity (>80% RH) for 24 hours at 23° C. Subsequently, the plants were moved to a high humidity environment (>80% RH) at 23° C. and 12 hours of light and dark until fungal infection was visible on the leaves of the mock-treated plants (usually after about four days). Symptoms were evaluated by photographing the infected leaves and processing the images through machine learning image analysis software (Ilastik) to determine the symptomatic areas relative to the total leaf area. […] The infection levels in the treated plants were similar to those treated with 1 μM ascr #18. […] In FIG. 1, error bars depict standard error of the mean for a total n≥35 plants across 4 independent experiments. Outliers were removed with the GraphPad ROUT method, and significance determined by a one-way ANOVA test.
# [2] = LC-MS analysis of the treatment solutions (Input); assay type: physicochemical; conditions: 10 μM aqueous treatment solutions used to treat the sprouts; Rep1/Rep2
# Protocol: as §1
# Sprouts were collected, thoroughly rinsed with MQ water, dried, flash-frozen, and homogenized. The homogenized tissues were extracted with 100% ethanol and the extracts were analyzed using high-resolution liquid chromatography-mass spectrometry (LC-MS). […] Samples were injected and analyzed in negative electrospray ionization mode with an m/z range of 100-1000. […] Samples were also analyzed in positive ionization mode.
# as §2
SMILES,hydrolysis or metabolism by the plant [1],"uptake by plants ([1]; alfalfa sprouts, 10 μM)","half-life in the plant relative to ascr #18 ([1]; alfalfa, inferred from LC-MS data of Table 1)",infection symptoms (symptomatic areas relative to the total leaf area) compared to mock (Bipolaris sorokiniana),efficacy in reducing fungal infection relative to ascr #18 (Bipolaris sorokiniana),Input (LCMS detector response for diagnostic ion of the analog or ascr#18) [2]
"CCN(CC)C(=O)CCCCCCCC[C@@H](C)O[C@@H]1O[C@@H](C)[C@H](O)C[C@H]1O [compound 1a, (R)-10-(((2R,3R,5R,6S)-3,5-dihydroxy-6-methyltetrahydro-2H-pyran-2-yl)oxy)-N,N-diethylundecanamide]",not hydrolyzed or metabolized,taken up by plants,longer half life than ascr #18 or the other analogs tested,reduced infection symptoms,comparable to that of ascr #18,4.03E+06 and 6.78E+06
"C[C@H](CCCCCCCCC(N)=O)O[C@@H]1O[C@@H](C)[C@H](O)C[C@H]1O [1c, (R)-10-(((2R,3R,5R,6S)-3,5-dihydroxy-6-methyltetrahydro-2H-pyran-2-yl)oxy)-undecanamide]",hydrolyzed or metabolized by the plant,–,–,reduced infection symptoms,comparable to that of ascr #18,–
"C[C@H](CCCCCCCCC(=O)NCCO)O[C@@H]1O[C@@H](C)[C@H](O)C[C@H]1O [1b, (R)-10-(((2R,3R,5R,6S)-3,5-dihydroxy-6-methyltetrahydro-2H-pyran-2-yl)oxy)-N-(2-hydroxyethyl)-undecanamide]",hydrolyzed or metabolized by the plant,–,–,reduced infection symptoms,comparable to that of ascr #18,–
